{
  "source": "paper PMC12624743",
  "about": "(ACS Infectious Diseases, 2025)",
  "key": {"[1]": {"molecular_target": "T1, N. gonorrhoeae gyrase GyrA^S91F (Neisseria gonorrhoeae, UniProt P48371, S91F)", "T1 construct": "His; made in house", "T1 sequence (P48371 whole entry S91F)": "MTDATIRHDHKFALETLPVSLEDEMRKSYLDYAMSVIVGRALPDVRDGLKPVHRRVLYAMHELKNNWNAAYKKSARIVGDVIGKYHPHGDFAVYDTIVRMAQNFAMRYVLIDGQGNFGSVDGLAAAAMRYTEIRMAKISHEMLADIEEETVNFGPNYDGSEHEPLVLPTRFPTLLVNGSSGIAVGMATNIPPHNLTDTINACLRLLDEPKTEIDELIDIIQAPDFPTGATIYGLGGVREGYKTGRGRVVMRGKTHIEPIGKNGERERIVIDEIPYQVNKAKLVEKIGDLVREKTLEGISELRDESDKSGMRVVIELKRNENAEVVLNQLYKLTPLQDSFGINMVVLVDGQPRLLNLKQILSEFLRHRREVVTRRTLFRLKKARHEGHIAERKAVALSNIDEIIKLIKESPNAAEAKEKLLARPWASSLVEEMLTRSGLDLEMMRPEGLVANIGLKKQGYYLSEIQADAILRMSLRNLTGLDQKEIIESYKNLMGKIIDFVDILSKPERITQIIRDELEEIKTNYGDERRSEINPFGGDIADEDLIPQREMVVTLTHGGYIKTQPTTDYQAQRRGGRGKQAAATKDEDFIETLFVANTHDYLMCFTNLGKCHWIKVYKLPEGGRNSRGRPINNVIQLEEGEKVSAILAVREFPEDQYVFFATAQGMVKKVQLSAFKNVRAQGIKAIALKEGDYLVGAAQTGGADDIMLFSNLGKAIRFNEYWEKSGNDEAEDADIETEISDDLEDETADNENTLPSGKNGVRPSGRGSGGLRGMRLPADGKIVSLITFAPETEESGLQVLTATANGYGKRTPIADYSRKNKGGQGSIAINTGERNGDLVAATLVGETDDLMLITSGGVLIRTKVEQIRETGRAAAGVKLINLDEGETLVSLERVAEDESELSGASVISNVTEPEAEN", "T1 sequence (P22118 whole entry partner)": "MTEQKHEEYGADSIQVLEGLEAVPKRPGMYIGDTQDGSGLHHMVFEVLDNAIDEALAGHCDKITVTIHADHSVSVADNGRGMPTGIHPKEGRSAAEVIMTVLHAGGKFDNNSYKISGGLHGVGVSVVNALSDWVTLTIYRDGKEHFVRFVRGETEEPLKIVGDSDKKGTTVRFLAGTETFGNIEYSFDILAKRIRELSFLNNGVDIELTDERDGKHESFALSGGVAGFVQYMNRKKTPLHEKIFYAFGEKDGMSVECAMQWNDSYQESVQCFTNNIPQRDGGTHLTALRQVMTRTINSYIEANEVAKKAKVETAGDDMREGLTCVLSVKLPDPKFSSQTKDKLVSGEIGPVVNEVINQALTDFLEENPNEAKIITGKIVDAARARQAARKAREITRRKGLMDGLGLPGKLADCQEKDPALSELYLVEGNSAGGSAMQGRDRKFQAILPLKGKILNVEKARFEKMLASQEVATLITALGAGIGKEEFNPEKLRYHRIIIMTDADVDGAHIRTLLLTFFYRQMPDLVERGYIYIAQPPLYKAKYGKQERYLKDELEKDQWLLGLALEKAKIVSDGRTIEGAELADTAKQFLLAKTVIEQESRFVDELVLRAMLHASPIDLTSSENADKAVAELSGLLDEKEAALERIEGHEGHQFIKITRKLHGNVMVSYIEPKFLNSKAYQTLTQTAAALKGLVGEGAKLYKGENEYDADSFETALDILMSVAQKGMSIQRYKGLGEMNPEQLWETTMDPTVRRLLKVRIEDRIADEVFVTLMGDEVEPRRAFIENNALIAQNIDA", "assay": "Gyrase-catalyzed DNA supercoiling assay, GyrA^S91F", "type": "biochemical", "protocol": "(§1) All proteins were His-tagged. N. gonorrhoeae WT gyrase (GyrA, GyrB) and topoisomerase IV (ParC, ParE) subunits as well as mutant GyrA^D90N, GyrA^A92T, GyrA^S91F, and GyrA^S91F/D95G gyrase and ParC^D86N and ParC^S88P topoisomerase IV were prepared as described previously. , N. gonorrhoeae mutant GyrA^D95G gyrase and mutant ParC^S87N and ParC^E91G topoisomerase IV were generated using a QuickChange II XL site-directed mutagenesis kit (Agilent Technologies) with custom primers for the desired mutations. […] The identities of all constructs were confirmed by DNA sequencing, and all enzymes were stored at −80 °C. In all assays, N. gonorrhoeae gyrase or topoisomerase IV was used as a 1:1 GyrA:GyrB or ParC:ParE mixture, respectively, and the stated enzyme concentration reflects that of the holoenzyme (A2B2).\n(§2) Samples were mixed with 2 μL of loading dye [60% sucrose, 10 mM Tris–HCl (pH 7.9), 0.5% bromophenol blue, and 0.5% xylene cyanol FF] and incubated at 45 °C for 2 min before being subjected to electrophoresis on 1% agarose gels in 100 mM Tris-borate (pH 8.3) and 2 mM EDTA. […] DNA bands were visualized with medium-range ultraviolet light and quantified using an Alpha Innotech digital imaging system (Protein Simple). DNA supercoiling was monitored by the conversion of relaxed to supercoiled plasmid."}, "[2]": {"test_system": "N. gonorrhoeae FA1090-Q1 (GyrA^S91F/D95G, ParC WT)", "assay": "MIC by agar dilution, fluoroquinolone-resistant GyrA^S91F/D95G strain", "type": "cell-based", "settings": "Neisseria gonorrhoeae", "protocol": "(§3) Minimum inhibitory concentration (MIC) of test compounds was determined by an agar dilution method, the reference testing method for N. gonorrhoeae according to the standards of the Clinical and Laboratory Standards Institute and the CDC."}, "[3]": {"molecular_target": "T2, N. gonorrhoeae gyrase GyrA^A92T (Neisseria gonorrhoeae, UniProt P48371, A92T)", "T2 construct": "His; made in house", "T2 sequence (P48371 whole entry A92T)": "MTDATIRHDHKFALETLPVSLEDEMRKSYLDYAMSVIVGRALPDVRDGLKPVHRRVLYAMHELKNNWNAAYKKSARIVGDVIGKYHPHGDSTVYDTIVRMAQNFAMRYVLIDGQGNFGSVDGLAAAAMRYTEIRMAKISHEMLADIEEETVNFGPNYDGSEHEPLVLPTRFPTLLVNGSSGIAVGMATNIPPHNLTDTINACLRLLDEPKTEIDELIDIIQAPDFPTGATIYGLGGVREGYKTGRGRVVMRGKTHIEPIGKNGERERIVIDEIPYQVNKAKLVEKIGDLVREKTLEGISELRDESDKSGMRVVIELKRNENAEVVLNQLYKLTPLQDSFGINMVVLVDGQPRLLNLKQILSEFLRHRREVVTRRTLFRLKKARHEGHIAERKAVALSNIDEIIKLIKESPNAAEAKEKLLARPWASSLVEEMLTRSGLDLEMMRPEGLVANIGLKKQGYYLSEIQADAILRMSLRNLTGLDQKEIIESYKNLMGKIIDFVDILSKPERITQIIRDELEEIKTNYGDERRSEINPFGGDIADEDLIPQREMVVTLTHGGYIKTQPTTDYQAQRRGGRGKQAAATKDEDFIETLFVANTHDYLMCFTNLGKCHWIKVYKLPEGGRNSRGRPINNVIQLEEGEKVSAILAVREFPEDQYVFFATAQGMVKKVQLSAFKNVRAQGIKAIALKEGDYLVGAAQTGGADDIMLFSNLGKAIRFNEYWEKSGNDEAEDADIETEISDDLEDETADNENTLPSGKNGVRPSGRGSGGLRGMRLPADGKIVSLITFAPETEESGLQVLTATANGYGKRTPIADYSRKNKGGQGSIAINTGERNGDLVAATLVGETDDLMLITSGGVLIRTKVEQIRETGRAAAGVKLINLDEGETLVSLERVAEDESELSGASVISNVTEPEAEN", "T2 sequence (P22118 whole entry partner)": "as the sequence (P22118 whole entry partner) above", "assay": "Gyrase-catalyzed DNA supercoiling assay, GyrA^A92T", "type": "biochemical", "protocol": "as §1, §2"}, "[4]": {"molecular_target": "T3, N. gonorrhoeae topoisomerase IV ParC^S88P (Neisseria gonorrhoeae, UniProt P48374, S88P)", "T3 sequence (P48374 1-768 S88P)": "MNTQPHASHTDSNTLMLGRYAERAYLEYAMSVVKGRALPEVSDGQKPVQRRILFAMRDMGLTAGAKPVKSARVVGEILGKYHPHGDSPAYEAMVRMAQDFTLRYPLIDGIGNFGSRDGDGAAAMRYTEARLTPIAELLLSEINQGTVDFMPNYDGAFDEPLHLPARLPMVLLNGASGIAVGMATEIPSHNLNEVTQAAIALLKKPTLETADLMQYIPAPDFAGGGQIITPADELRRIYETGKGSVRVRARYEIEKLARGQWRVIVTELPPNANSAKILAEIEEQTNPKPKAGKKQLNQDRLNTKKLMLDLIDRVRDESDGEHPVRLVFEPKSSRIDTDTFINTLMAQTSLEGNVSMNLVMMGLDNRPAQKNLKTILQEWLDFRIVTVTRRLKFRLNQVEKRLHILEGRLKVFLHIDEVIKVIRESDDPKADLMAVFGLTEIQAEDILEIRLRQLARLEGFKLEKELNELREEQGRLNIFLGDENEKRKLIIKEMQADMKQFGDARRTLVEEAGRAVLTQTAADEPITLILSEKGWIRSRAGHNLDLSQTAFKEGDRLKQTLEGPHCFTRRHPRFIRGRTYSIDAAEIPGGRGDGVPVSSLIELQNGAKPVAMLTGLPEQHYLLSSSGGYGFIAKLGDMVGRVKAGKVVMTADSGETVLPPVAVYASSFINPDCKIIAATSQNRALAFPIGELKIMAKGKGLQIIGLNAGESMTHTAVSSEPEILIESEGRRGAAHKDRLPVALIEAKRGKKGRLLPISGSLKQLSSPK", "assay": "Topoisomerase IV-catalyzed DNA decatenation assay, ParC^S88P", "type": "biochemical", "design": "His; made in house", "protocol": "All proteins were His-tagged. N. gonorrhoeae WT gyrase (GyrA, GyrB) and topoisomerase IV (ParC, ParE) subunits as well as mutant GyrA^D90N, GyrA^A92T, GyrA^S91F, and GyrA^S91F/D95G gyrase and ParC^D86N and ParC^S88P topoisomerase IV were prepared as described previously. , N. gonorrhoeae mutant GyrA^D95G gyrase and mutant ParC^S87N and ParC^E91G topoisomerase IV were generated using a QuickChange II XL site-directed mutagenesis kit (Agilent Technologies) with custom primers for the desired mutations. Mutant N. gonorrhoeae GyrA and ParC subunits were expressed and purified as described by Ashley et al. with the following modifications to optimize protein expression and lysis: (1) GyrA^D95G was expressed for 2.5 h and ParC^S87N and ParC^E91G were expressed for 3 h before harvesting, and (2) cells were lysed by sonication using a digital sonifier (Branson). The identities of all constructs were confirmed by DNA sequencing, and all enzymes were stored at −80 °C. In all assays, N. gonorrhoeae gyrase or topoisomerase IV was used as a 1:1 GyrA:GyrB or ParC:ParE mixture, respectively, and the stated enzyme concentration reflects that of the holoenzyme (A2B2). […]"}, "[5]": {"test_system": "N. gonorrhoeae FA1090E-2 (GyrA^WT/ParC^D86N)", "assay": "MIC by agar dilution, ParC^D86N strain", "type": "cell-based", "settings": "Neisseria gonorrhoeae", "protocol": "Mutations in these efflux genes can result in increased efflux to multiple antibiotics. […] Parental and isogenic mutant strains generated that carried the efflux mutations mtrR-79 and norM ΔT T6 were designated as FA1090E (E for efflux positive). Only the additional GyrA and ParC genotypes are described in Table and in the text. The mutant that additionally expressed ParC^D86N was named FA1090E-2.\nas §3"}, "[6]": {"test_system": "uncomplicated urogenital gonorrhea", "design": "method as in recent phase III clinical trial", "settings": "vs intramuscular ceftriaxone plus oral azithromycin, ref recent phase III clinical trial; cited from earlier work"}},
  "note": "Entries after “also recorded” stand apart in the source; their conditions may differ.",
  "data": [
    {"smiles": "O=c1ccc2ncc(=O)n3c2n1C[C@H]3CN1CCC(NCc2cc3c(cn2)OCCC3)CC1", "note": "[gepotidacin]", "values": [
      {"measurement": "IC50", "setting": "[1]; GyrA S91F gyrase, read-out: IC50, inhibition of DNA supercoiling", "value": 7.5, "unit": "µM"},
      {"measurement": "fold increase of supercoiling IC50 vs WT gyrase", "setting": "[1]; GyrA S91F vs WT", "value": "~1.5", "unit": "fold"},
      {"measurement": "MIC", "setting": "[2]", "value": 0.125, "unit": "µg/mL"},
      {"measurement": "IC50", "setting": "[3]; GyrA A92T gyrase, read-out: IC50, inhibition of DNA supercoiling", "value": "8.5 ± 2.1", "unit": "µM"},
      {"measurement": "fold increase of supercoiling IC50 vs WT gyrase", "setting": "[3]; GyrA A92T vs WT", "value": "~1.7", "unit": "fold"},
      {"measurement": "IC50", "setting": "[4]", "value": 1.2, "unit": "µM"},
      {"measurement": "effect of mutation on gepotidacin susceptibility in decatenation assays", "setting": "[4]; ParC S88P vs WT", "value": "no effect"},
      {"measurement": "MIC", "setting": "[5]", "value": 0.5, "unit": "µg/mL"},
      {"measurement": "outcome of phase III clinical trial", "setting": "[6]", "value": "met its primary efficacy end point; also recorded: noninferiority"}
    ]}
  ]
}
